Data reported in patent US12649745B2, “Amino-pyrimidine cyclo-amides” (Hoffmann-La Roche Inc., priority 2020, dated 2026).
pIC50: −log10 of the molar value.

target: T1, human Autotaxin (ATX) (Homo sapiens, UniProt Q13822); assay: Human ATX enzyme inhibition assay (LPC substrate, choline oxidase/HRP/Amplex Red coupled format); assay type: biochemical; details: recombinant hATX 1 nM, 18:1 LPC 30 μM, fluorescence at 90 mins minus 5 mins
T1 construct: generate a full length human ENPP2 ORF with or without a 3′-6×His tag; 6xHis (C); made in house; host or cells: FreeStyle 293-F cells (transient transfection), purified from culture supernatant
Description: Human ATX Enzyme Inhibition Assay
To identify inhibitors of the human Autotaxin (ATX) enzyme an in-vitro biochemical profiling assay has been developed using lysophosphatidylcholine (LPC) as substrate and recombinant enzyme. ATX activity is assayed via a coupled enzyme format where choline produced from LPC hydrolysis is converted to hydrogen peroxide by choline oxidase (CO). Hydrogen peroxide is in turn used as a co-substrate by horseradish peroxidase (HRP) to oxidise Amplex Red® and generate the red-fluorescent product, Resorufin.
50 mM Tris-HCl (pH 8.0); 120 mM NaCl; 20 mM CaCl2; 5 mM KCl; 1 mM MgCl2; 0.01% Triton X-100, sterile-filtered and stored at 4° C.
50 mM Tris-HCl (pH 8.0); 150 mM NaCl
human Autotaxin (hATX): 0.97 mg/ml (9.718 μM) Molecular weight 99817. Working solution of 1.5 μM used in this assay.
100 mM 18:1 LPC dissolved in reagent dilution-buffer.
500 U/ml Choline Oxidase in reagent dilution buffer.
2540 U/ml Horseradish Peroxidase, in reagent dilution buffer (10.95 mg/ml).
20 mM Amplex Red (10-Acetyl-3,7-dihydroxy-phenoxazin) in DMSO.
Black, 384-well plate, black with clear bottom, non-treated surface.
Test compounds are received pre-diluted in DMSO as an 11-point concentration-response (0.5 mM highest concentration; 1 in 3.162 dilution). Test compounds are pre-diluted 1:1 (10 μL compound+10 μL assay buffer) in a 96-well conical bottomed plate prior to use.
ATX is diluted to 2.2 nM in assay buffer. Choline oxidase and horseradish peroxidase are diluted to 7.3 U/ml and 14.7 U/ml, respectively. 18:1 LPC and Amplex Red® are diluted to 110 μM and 183.3 μM, respectively (solution protected from light). 2.2 μL of compound pre-dilution or 50% DMSO is added to the reaction plate followed by 25 μL of ATX or assay buffer (negative control). Assay plate is mixed and incubated at room temperature for 10 mins. 15 μL of choline oxidase/horseradish peroxidase is then added. To initiate the reaction 15 μL of LPC 18:1/Amplex Red is added. Assay plate is mixed and incubated at room temperature in the dark. Fluorescence is measured at 5 mins (for background subtraction) and 90 mins.
Final Assay Concentrations:
Horse Radish Peroxidase: 4 U/ml
Fluorescence at 5-minutes is subtracted from the 90-minute end point data and normalized with respect to the positive control. IC50 values are calculated.
Results in the enzymatic ATX inhibition assay are provided for compounds of formula (I).

SMILES	pIC50
N#Cc1cc(Cl)cc2c1C[C@@H](Nc1ncc3c(n1)CN(C1CCOC1)C3=O)C2 (mixture of isomers) [Example 11, (S,S) and (S,R)-6-chloro-2-((5-oxo-6-(tetrahydrofuran-3-yl)-6,7-dihydro-5H-pyrrolo[3,4-d]pyrimidin-2-yl)amino)-2,3-dihydro-1H-indene-4-carbonitrile]	8.22
N#Cc1cc(Cl)cc2c1C[C@@H](Nc1ncc3c(n1)CCN(C1CCOC1)C3=O)C2 (mixture of isomers) [Example 32, (S,S) and (S,R)-6-chloro-2-((5-oxo-6-(tetrahydrofuran-3-yl)-5,6,7,8-tetrahydropyrido[4,3-d]pyrimidin-2-yl)amino)-2,3-dihydro-1H-indene-4-carbonitrile]	8.40
O=C1c2cnc(NC3Cc4ccc(Cl)cc4C3)nc2CN1C1COC1 (centres unmarked) [Example 1, 2-((5-chloro-2,3-dihydro-1H-inden-2-yl)amino)-6-(oxetan-3-yl)-6,7-dihydro-5H-pyrrolo[3,4-d]pyrimidin-5-one]	6.82
O=C1c2cnc(NC3Cc4ccc(Cl)cc4C3)nc2CN1C1CC2(C1)CC(F)(F)C2 (centres unmarked) [Example 4, 2-((5-chloro-2,3-dihydro-1H-inden-2-yl)amino)-6-(6,6-difluorospiro[3.3]heptan-2-yl)-6,7-dihydro-5H-pyrrolo[3,4-d]pyrimidin-5-one]	7.38
CC1(N2Cc3nc(N[C@H]4Cc5cc(Cl)cc(C#N)c5C4)ncc3C2=O)CC(F)(F)C1 [Example 6, (S)-6-chloro-2-((6-(3,3-difluoro-1-methylcyclobutyl)-5-oxo-6,7-dihydro-5H-pyrrolo[3,4-d]pyrimidin-2-yl)amino)-2,3-dihydro-1H-indene-4-carbonitrile]	8.40
N#Cc1cc(Cl)cc2c1C[C@@H](Nc1ncc3c(n1)CN(C1CC(F)(F)C1)C3=O)C2 [Example 8, (S)-6-chloro-2-((6-(3,3-difluorocyclobutyl)-5-oxo-6,7-dihydro-5H-pyrrolo[3,4-d]pyrimidin-2-yl)amino)-2,3-dihydro-1H-indene-4-carbonitrile]	8.52
N#Cc1cc(Cl)cc2c1C[C@@H](Nc1ncc3c(n1)CN(C1CCOCC1)C3=O)C2 [Example 9, (S)-6-chloro-2-((5-oxo-6-(tetrahydro-2H-pyran-4-yl)-6,7-dihydro-5H-pyrrolo[3,4-d]pyrimidin-2-yl)amino)-2,3-dihydro-1H-indene-4-carbonitrile]	8.30
CC(C)N1Cc2nc(N[C@H]3Cc4cc(Cl)cc(C#N)c4C3)ncc2C1=O [Example 12, (S)-6-chloro-2-((6-isopropyl-5-oxo-6,7-dihydro-5H-pyrrolo[3,4-d]pyrimidin-2-yl)amino)-2,3-dihydro-1H-indene-4-carbonitrile]	8.52
N#Cc1cc(Cl)cc2c1C[C@@H](Nc1ncc3c(n1)CN(C1CC1)C3=O)C2 [Example 13, (S)-6-chloro-2-((6-cyclopropyl-5-oxo-6,7-dihydro-5H-pyrrolo[3,4-d]pyrimidin-2-yl)amino)-2,3-dihydro-1H-indene-4-carbonitrile]	8.70
N#Cc1cc(Cl)cc2c1C[C@@H](Nc1ncc3c(n1)CN(CC1COC1)C3=O)C2 [Example 14, (S)-6-chloro-2-((6-(oxetan-3-ylmethyl)-5-oxo-6,7-dihydro-5H-pyrrolo[3,4-d]pyrimidin-2-yl)amino)-2,3-dihydro-1H-indene-4-carbonitrile]	8.52
N#Cc1cc(Cl)cc2c1C[C@@H](Nc1ncc3c(n1)CN(C1COC1)C3=O)C2 [Example 16, (S)-6-chloro-2-((6-(oxetan-3-yl)-5-oxo-6,7-dihydro-5H-pyrrolo[3,4-d]pyrimidin-2-yl)amino)-2,3-dihydro-1H-indene-4-carbonitrile]	8.40
N#Cc1cc(Cl)cc2c1C[C@@H](Nc1ncc3c(n1)CCN(C1COC1)C3=O)C2 [Example 17, (S)-6-chloro-2-((6-(oxetan-3-yl)-5-oxo-5,6,7,8-tetrahydropyrido[4,3-d]pyrimidin-2-yl)amino)-2,3-dihydro-1H-indene-4-carbonitrile]	8.52
N#Cc1cc(Cl)cc2c1C[C@@H](Nc1ncc3c(n1)CN([C@H]1C[C@H](O)C1)C3=O)C2 [Example 19]	8.30
CC(C)(O)CN1Cc2nc(N[C@H]3Cc4cc(Cl)cc(C#N)c4C3)ncc2C1=O [Example 21, (S)-6-chloro-2-((6-(2-hydroxy-2-methylpropyl)-5-oxo-6,7-dihydro-5H-pyrrolo[3,4-d]pyrimidin-2-yl)amino)-2,3-dihydro-1H-indene-4-carbonitrile]	8.30
N#Cc1cc(Cl)cc2c1C[C@@H](Nc1ncc3c(n1)CN(CCF)C3=O)C2 [Example 22, (S)-6-chloro-2-((6-(2-fluoroethyl)-5-oxo-6,7-dihydro-5H-pyrrolo[3,4-d]pyrimidin-2-yl)amino)-2,3-dihydro-1H-indene-4-carbonitrile]	8.70

Further compounds by rising pIC50, results first:

pIC50	SMILES
6.74	CC1(N2Cc3nc(NC4Cc5ccc(Cl)cc5C4)ncc3C2=O)COC1 (centres unmarked) [Example 2, 2-((5-chloro-2,3-dihydro-1H-inden-2-yl)amino)-6-(3-methyloxetan-3-yl)-6,7-dihydro-5H-pyrrolo[3,4-d]pyrimidin-5-one]
7.31	O=C1c2cnc(NC3Cc4ccc(Cl)cc4C3)nc2CN1C1CC(F)(F)C1 (centres unmarked) [Example 5, 2-((5-chloro-2,3-dihydro-1H-inden-2-yl)amino)-6-(3,3-difluorocyclobutyl)-6,7-dihydro-5H-pyrrolo[3,4-d]pyrimidin-5-one]
8.30	CC1(N2Cc3nc(N[C@H]4Cc5cc(Cl)cc(C#N)c5C4)ncc3C2=O)COC1 [Example 3, (S)-6-chloro-2-((6-(3-methyloxetan-3-yl)-5-oxo-6,7-dihydro-5H-pyrrolo[3,4-d]pyrimidin-2-yl)amino)-2,3-dihydro-1H-indene-4-carbonitrile]
8.30	COCCN1Cc2nc(N[C@H]3Cc4cc(Cl)cc(C#N)c4C3)ncc2C1=O [Example 20, (S)-6-chloro-2-((6-(2-methoxyethyl)-5-oxo-6,7-dihydro-5H-pyrrolo[3,4-d]pyrimidin-2-yl)amino)-2,3-dihydro-1H-indene-4-carbonitrile]
8.52	N#Cc1cc(Cl)cc2c1C[C@@H](Nc1ncc3c(n1)CN(C1CC4(C1)CC(F)(F)C4)C3=O)C2 [Example 7, (S)-6-chloro-2-((6-(6,6-difluorospiro[3.3]heptan-2-yl)-5-oxo-6,7-dihydro-5H-pyrrolo[3,4-d]pyrimidin-2-yl)amino)-2,3-dihydro-1H-indene-4-carbonitrile]
8.52	N#Cc1cc(Cl)cc2c1C[C@@H](Nc1ncc3c(n1)CN(CC1CC1)C3=O)C2 [Example 18, (S)-6-chloro-2-((6-(cyclopropylmethyl)-5-oxo-6,7-dihydro-5H-pyrrolo[3,4-d]pyrimidin-2-yl)amino)-2,3-dihydro-1H-indene-4-carbonitrile]
8.70	N#Cc1cc(Cl)cc2c1C[C@@H](Nc1ncc3c(n1)CN(CC(F)(F)F)C3=O)C2 [Example 10, (S)-6-chloro-2-((5-oxo-6-(2,2,2-trifluoroethyl)-6,7-dihydro-5H-pyrrolo[3,4-d]pyrimidin-2-yl)amino)-2,3-dihydro-1H-indene-4-carbonitrile]
8.70	CC1(N2Cc3nc(N[C@H]4Cc5cc(Cl)cc(C#N)c5C4)ncc3C2=O)CC1 [Example 15, (S)-6-chloro-2-((6-(1-methylcyclopropyl)-5-oxo-6,7-dihydro-5H-pyrrolo[3,4-d]pyrimidin-2-yl)amino)-2,3-dihydro-1H-indene-4-carbonitrile]
